# Data taken from patent publication US4217274A, “Methoxyethoxymethyl esters of penicillins” (Bristol-Myers Company, priority 1978, dated 1980).
# Like-named read-outs stand apart in the source and are kept apart here.
# Key:
# Str. pneumoniae = experiment: MIC, antibiotic dilution technique (agar); type: cell-based; conditions: Streptococcus pneumoniae
# Text: (§1) Bacteria. The organisms, preponderantly of recent clinical origin, were obtained from numerous sources of broad geographical distribution. Obligate anaerobes were maintained in Egg Meat Medium (Difco); Mycobacterium was stored on Lowenstein Medium (Jensen Modification; Difco). The techniques of storing all other organisms have been described previously [Leitner et al., BL-S640, A Cephalosporin with a Broad Spectrum of Antibacterial Activity: Properties in vitro, Antimicrob. Agents Chemother., 7, 298-305 (1975)].
# (§2) Antibiotic spectrum. The growth-inhibitory activity of the compounds was determined by the antibiotic dilution technique. Procedures were as follows:
# (§3) Aerobic organisms (excluding Mycobacterium). Except for Haemophilus and Neisseria, the assay was performed in Mueller-Hinton Medium (Difco). For fastidious organisms, i.e., Streptococcus, Listeria, Pasteurella, Bordetella and Vibrio, the medium was supplemented with 4% defibrinated sheep blood. The antibiotic susceptibility of Haemophilus and Neisseria was determined in GC Medium Base (BBL) supplemented with 1% Hemoglobin (BBL) and 1% Isovitalex (BBL).
# (§4) Overnight broth cultures of an exponentially growing culture (Neisseria) served as the source of inoculum. A volume of approximately 0.003 ml. of the undiluted or diluted culture was applied to the surface of the antibiotic-containing agar plates with the inoculator of Steers et al., An Inocula Replicating Apparatus for Routine Testing of Bacterial Susceptibility to Antibiotics, Antibiot. Chemother., 9, 307-311, (1959). Cultures of Neisseria, Streptococcus pneumoniae, S. viridans and S. pyogenes were used without dilution; those of all other organisms were diluted 100-fold. The inoculum contained about 10^3 viable cells for Neisseria, 10^5 for S. pneumoniae and S. pyogenes, 10^6 for S. viridans and 10^4 for all other species.
# Ent. cloacae = experiment: MIC, antibiotic dilution technique (agar); type: cell-based; conditions: Enterobacter cloacae, read-out: MIC
# Text: as §1, §2, §3, §4
# S. aureus Pen-Res. = experiment: MIC, antibiotic dilution technique (agar); type: cell-based; conditions: Staphylococcus aureus, read-out: MIC
# Text: as §1, §2, §3, §4
# E. Coli [1] = experiment: MIC, antibiotic dilution technique (agar); type: cell-based; conditions: Escherichia coli
# Text: as §1, §2, §3, §4
# Pr. morganii = experiment: MIC, antibiotic dilution technique (agar); type: cell-based; conditions: Morganella morganii, read-out: MIC
# Text: as §1, §2, §3, §4
# S. aureus Meth-Res. = experiment: MIC, antibiotic dilution technique (agar); type: cell-based; conditions: Staphylococcus aureus
# Text: as §1, §2, §3, §4
# Pr. vulgaris = experiment: MIC, antibiotic dilution technique (agar); type: cell-based; conditions: Proteus vulgaris
# Text: as §1, §2, §3, §4
# Pr. rettgeri = experiment: MIC, antibiotic dilution technique (agar); type: cell-based; conditions: Providencia rettgeri
# Text: as §1, §2, §3, §4
# S. aureus = experiment: MIC, antibiotic dilution technique (agar); type: cell-based; conditions: Staphylococcus aureus
# Text: as §1, §2, §3, §4
# Ps. aeruginosa = experiment: MIC, antibiotic dilution technique (agar); type: cell-based; conditions: Pseudomonas aeruginosa, read-out: MIC
# Text: as §1, §2, §3, §4
# K. pneumoniae [2] = experiment: MIC, antibiotic dilution technique (agar); type: cell-based; conditions: Klebsiella pneumoniae, read-out: MIC
# Text: as §1, §2, §3, §4
# Pr. mirabilis = experiment: MIC, antibiotic dilution technique (agar); type: cell-based; conditions: Proteus mirabilis
# Text: as §1, §2, §3, §4
# Ser. marcescens = experiment: MIC, antibiotic dilution technique (agar); type: cell-based; conditions: Serratia marcescens
# Text: as §1, §2, §3, §4
# Str. faecalis = experiment: MIC, antibiotic dilution technique (agar); type: cell-based; conditions: Enterococcus faecalis
# Text: as §1, §2, §3, §4
# Str. pyogenes = experiment: MIC, antibiotic dilution technique (agar); type: cell-based, S. pyogenes; conditions: Streptococcus pyogenes
# Text: as §1, §2, §3, §4
# S. marcescens = experiment: MIC, antibiotic dilution technique (agar), Table 4; type: cell-based
# Text: as §1, §2, §3, §4
# E. cloacae = experiment: MIC, antibiotic dilution technique (agar), Table 4; type: cell-based; conditions: Enterobacter cloacae; Table 4, 2 strains, geometric mean where applicable
# Text: as §1, §2, §3, §4
# [3] = system: S. aureus (lacking penase); experiment: MIC, antibiotic dilution technique (agar), Table 4; type: cell-based; conditions: Staphylococcus aureus; Table 4, 6 strains, geometric mean where applicable
# Text: as §1, §2, §3, §4
# S. viridans = experiment: MIC, antibiotic dilution technique (agar), Table 4; type: cell-based; conditions: Streptococcus viridans
# Text: as §1, §2, §3, §4
# P. rettgeri = experiment: MIC, antibiotic dilution technique (agar), Table 4; type: cell-based; conditions: Providencia rettgeri
# Text: as §1, §2, §3, §4
# E. Coli [4] = experiment: MIC, antibiotic dilution technique (agar), Table 4; type: cell-based; conditions: Escherichia coli
# Text: as §1, §2, §3, §4
# S. pneumoniae = experiment: MIC, antibiotic dilution technique (agar), Table 4; type: cell-based; conditions: Streptococcus pneumoniae; Table 4, 7 strains, geometric mean where applicable
# Text: as §1, §2, §3, §4
# [5] = system: Streptococcus sp. (β-hemolytic); experiment: MIC, antibiotic dilution technique (agar), Table 4; type: cell-based; conditions: Table 4, 6 strains, geometric mean where applicable
# Text: as §1, §2, §3, §4
# K. pneumoniae [6] = experiment: MIC, antibiotic dilution technique (agar), Table 4; type: cell-based; conditions: Klebsiella pneumoniae, Table 4, K. pneumoniae, read-out: MIC
# Text: as §1, §2, §3, §4
# P. mirabilis = experiment: MIC, antibiotic dilution technique (agar), Table 4; type: cell-based; conditions: Proteus mirabilis, Table 4, P. mirabilis, geometric mean where applicable, read-out: MIC
# Text: as §1, §2, §3, §4
# S. faecalis = experiment: MIC, antibiotic dilution technique (agar), Table 4; type: cell-based; conditions: Enterococcus faecalis; Table 4, 6 strains, geometric mean where applicable
# Text: as §1, §2, §3, §4
# S. pyogenes = experiment: MIC, antibiotic dilution technique (agar), Table 4; type: cell-based; conditions: Streptococcus pyogenes; Table 4, 6 strains, geometric mean where applicable
# Text: as §1, §2, §3, §4
# p. vulgaris = experiment: MIC, antibiotic dilution technique (agar), Table 4; type: cell-based; conditions: Proteus vulgaris; Table 4, 2 strains, geometric mean where applicable
# Text: as §1, §2, §3, §4
# [7] = Table 1, Ent. cloacae, first line
# [8] = Table 1, Ent. cloacae, second line
# [9] = Table 1, Ps. aeruginosa, first line
# [10] = Table 1, Ps. aeruginosa, second line
# [11] = Table 1, K. pneumoniae, first line
# [12] = Table 1, K. pneumoniae, second line
smiles,measurement,setting,value
"CC1(C)S[C@@H]2[C@H](N3C(=O)[C@@H](c4ccccc4)NC3(C)C)C(=O)N2[C@H]1C(=O)O [Hetacillin, hetacillin]",MIC,"Str. pneumoniae; Table 1, Str. pneumoniae",0.004 µg/mL
same,MIC,Ent. cloacae; [7],32 µg/mL
same,MIC,Ent. cloacae; [8],63 µg/mL
same,MIC,"S. aureus Pen-Res.; Table 1, S. aureus Pen-Res.",125 µg/mL
same,MIC,"E. Coli [1]; Table 1, E. Coli, first line",1 µg/mL
same,MIC,"E. Coli [1]; Table 1, E. Coli, second line",32 µg/mL
same,MIC,"Pr. morganii; Table 1, Pr. morganni",16 µg/mL
same,MIC,"S. aureus Meth-Res.; Table 1, S. aureus Meth-Res.",16 µg/mL
same,MIC,"Pr. vulgaris; Table 1, Pr. vulgaris",0.06 µg/mL
same,MIC,"Pr. rettgeri; Table 1, Pr. rettgeri",8 µg/mL
same,MIC,"S. aureus; Table 1, S. aureus",0.008 µg/mL
same,MIC,"S. aureus; Table 1, S. aureus + 50% serum",0.016 µg/mL
same,MIC,Ps. aeruginosa; [9],63 µg/mL
same,MIC,Ps. aeruginosa; [10],125 µg/mL
same,MIC,K. pneumoniae [2]; [11],63 µg/mL
same,MIC,K. pneumoniae [2]; [12],63 µg/mL
same,MIC,"Pr. mirabilis; Table 1, Pr. mirabilis",0.03 µg/mL
same,MIC,"Ser. marcescens; Table 1, Ser. marcescens",16 µg/mL
same,MIC,"Str. faecalis; Table 1, Str. faecalis",0.13 µg/mL
same,MIC,"Str. pyogenes; Table 1, Str. pyogenes",0.004 µg/mL
"COCCOCOC(=O)[C@@H]1N2C(=O)[C@@H](N3C(=O)[C@@H](c4ccccc4)NC3(C)C)[C@H]2SC1(C)C [RN-1492, Methoxyethoxymethyl Ester of Hetacillin]",MIC,"Str. pneumoniae; Table 1, Str. pneumoniae",0.004 µg/mL
same,MIC,Ent. cloacae; [7],63 µg/mL
same,MIC,Ent. cloacae; [8],63 µg/mL
same,MIC,"S. aureus Pen-Res.; Table 1, S. aureus Pen-Res.",> 125 µg/mL
same,MIC,"E. Coli [1]; Table 1, E. Coli, first line",2 µg/mL
same,MIC,"E. Coli [1]; Table 1, E. Coli, second line",63 µg/mL
same,MIC,"Pr. morganii; Table 1, Pr. morganni",32 µg/mL
same,MIC,"S. aureus Meth-Res.; Table 1, S. aureus Meth-Res.",63 µg/mL
same,MIC,"Pr. vulgaris; Table 1, Pr. vulgaris",0.25 µg/mL
same,MIC,"Pr. rettgeri; Table 1, Pr. rettgeri",16 µg/mL
same,MIC,"S. aureus; Table 1, S. aureus",0.06 µg/mL
same,MIC,"S. aureus; Table 1, S. aureus + 50% serum",0.13 µg/mL
same,MIC,Ps. aeruginosa; [9],63 µg/mL
same,MIC,Ps. aeruginosa; [10],125 µg/mL
same,MIC,K. pneumoniae [2]; [11],63 µg/mL
same,MIC,K. pneumoniae [2]; [12],32 µg/mL
same,MIC,"Pr. mirabilis; Table 1, Pr. mirabilis",0.25 µg/mL
same,MIC,"Ser. marcescens; Table 1, Ser. marcescens",32 µg/mL
same,MIC,"Str. faecalis; Table 1, Str. faecalis",0.5 µg/mL
same,MIC,S. marcescens; 1 strain (second line),> 125 µg/mL
same,MIC,"S. marcescens; Serratia marcescens, 1 strain (first line), read-out: MIC",> 125 µg/mL
same,MIC,E. cloacae,> 125 µg/mL
same,MIC,[3],0.18 µg/mL
same,MIC,"S. viridans; Table 4, S. viridans, 1 strain (second line)",0.25 µg/mL
same,MIC,"S. viridans; Table 4, S. viridans, 3 strains, geometric mean where applicable",0.05 µg/mL
same,MIC,"S. viridans; Table 4, s. viridans, 1 strain (third line)",0.5 µg/mL
same,MIC,"P. rettgeri; Table 4, P. retgeri, 2 strains (third line), geometric mean where applicable",63 µg/mL
same,MIC,"P. rettgeri; Table 4, P. rettgeri, 1 strain (first line)",0.25 µg/mL
same,MIC,"P. rettgeri; Table 4, P. rettgeri, 1 strain (second line)",16 µg/mL
same,MIC,E. Coli [4]; 1 strain (first line),2 µg/mL
same,MIC,E. Coli [4]; 1 strain (fourth line),> 125 µg/mL
same,MIC,E. Coli [4]; 1 strain (third line),63 µg/mL
same,MIC,"E. Coli [4]; 3 strains (second line), geometric mean where applicable",5 µg/mL
same,MIC,S. pneumoniae,0.032 µg/mL
same,MIC,[5],0.13 µg/mL
same,MIC,K. pneumoniae [6]; 1 strain (first line),63 µg/mL
same,MIC,K. pneumoniae [6]; 1 strain (second line),> 125 µg/mL
same,MIC,P. mirabilis; 2 strains,> 125 µg/mL
same,MIC,P. mirabilis; 4 strains,4 µg/mL
same,MIC,S. faecalis,2 µg/mL
same,MIC,S. pyogenes,0.027 µg/mL
same,MIC,p. vulgaris,0.5 µg/mL
same,MIC,"Str. pyogenes; Table 1, Str. pyogenes",0.008 µg/mL
"COCCOCOC(=O)[C@@H]1N2C(=O)[C@@H](N3C(=O)[C@@H](c4ccc(O)cc4)NC3(C)C)[C@H]2SC1(C)C [RN-1493, Methoxyethoxymethyl Ester of Heta-Amoxicillin]",MIC,"Str. pneumoniae; Table 2, Str. pneumoniae",0.004 µg/mL
same,MIC,"Ent. cloacae; Table 2, Ent. cloacae, first line",63 µg/mL
same,MIC,"Ent. cloacae; Table 2, Ent. cloacae, second line",63 µg/mL
same,MIC,"S. aureus Pen-Res.; Table 2, S. aureus Pen-Res.",125 µg/mL
same,MIC,"E. Coli [1]; Table 2, E. coli, first line",2 µg/mL
same,MIC,"E. Coli [1]; Table 2, E. coli, second line",63 µg/mL
same,MIC,"Pr. morganii; Table 2, Pr. morganii",16 µg/mL
same,MIC,"S. aureus Meth-Res.; Table 2, S. aureus Meth-Res.",63 µg/mL
same,MIC,"Pr. vulgaris; Table 2, Pr. vulgaris",0.5 µg/mL
same,MIC,"Pr. rettgeri; Table 2, Pr. rettgeri",32 µg/mL
same,MIC,"S. aureus; Table 2, S. aureus",0.06 µg/mL
same,MIC,"S. aureus; Table 2, S. aureus + 50% serum",0.25 µg/mL
same,MIC,"Ps. aeruginosa; Table 2, Ps. aeruginosa, first line",63 µg/mL
same,MIC,"Ps. aeruginosa; Table 2, Ps. aeruginosa, second line",63 µg/mL
same,MIC,"K. pneumoniae [2]; Table 2, K. pneumoniae, first line",63 µg/mL
same,MIC,"K. pneumoniae [2]; Table 2, K. pneumoniae, second line",63 µg/mL
same,MIC,"Pr. mirabilis; Table 2, Pr. mirabilis",0.5 µg/mL
same,MIC,"Ser. marcescens; Table 2, Ser. marcescens",32 µg/mL
same,MIC,"Str. faecalis; Table 2, Str. faecalis",0.5 µg/mL
same,MIC,"Str. pyogenes; Table 2, Str. pyogenes",0.008 µg/mL
